Assay results: US20070015823A1, “Ambruticin VS compounds” (priority 2004, published 2007)
Values after ≈ are worked out from the molar mass of the structure shown.

Tests used:
[1] = system: Trichophyton mentagrophytes; assay: Dermatophyte broth microdilution, NCCLS M38-A; assay type: cell-based
Fusarium solani = assay: Broth microdilution antifungal susceptibility, NCCLS M38-A; assay type: cell-based; conditions: strain 96-1; 50% growth inhibition; range = minimum and maximum of multiple assays
A. fumigatus ATCC 204305 = assay: as above; assay type: cell-based, Aspergillus fumigatus; conditions: minimal concentration inhibiting >95% growth; average of at least two assays (except I-l and I-x)
Microsporum canis = assay: Dermatophyte broth microdilution, NCCLS M38-A; assay type: cell-based
[2] = system: Trichophyton interdigitale; assay: Dermatophyte broth microdilution, NCCLS M38-A; assay type: cell-based
Candida albicans = conditions: 50% growth inhibition, range = minimum and maximum of multiple assays; for MIC C. albicans 24433: strain 24433; for MIC C. albicans 90028: strain 90028
Trichophyton rubrum = assay: Dermatophyte broth microdilution, NCCLS M38-A; assay type: cell-based
Epidermophyton floccosum = assay: Dermatophyte broth microdilution, NCCLS M38-A; assay type: cell-based
A. flavus ATCC 204304 = assay: Broth microdilution antifungal susceptibility, NCCLS M38-A; assay type: cell-based, Aspergillus flavus; conditions: minimal concentration inhibiting >95% growth; average of at least two assays (except I-l and I-x)
Microsporum gypseum = assay: Dermatophyte broth microdilution, NCCLS M38-A; assay type: cell-based
S. apiospermum = assay: Broth microdilution antifungal susceptibility, NCCLS M38-A; assay type: cell-based, Scedosporium apiospermum
Cryptococcus neoformans = assay: as above; conditions: 50% growth inhibition, range = minimum and maximum of multiple assays; for MIC C. neoformans 97-14: strain 97-14; for MIC C. neoformans 11239: strain 11239; for MIC C. neoformans 11240: strain 11240
Histoplasma capsulatum = assay type: cell-based
Blastomyces dermatitidis = assay: Broth microdilution antifungal susceptibility, NCCLS M38-A; assay type: cell-based

| Molecule | MIC0 Tm [1] | MIC F. solani 96-1 (Fusarium solani) | MIC0 A. fumigatus ATCC 204305 (A. fumigatus ATCC 204305) | MIC0 Mc (Microsporum canis) | MIC0 Ti [2] | MIC C. albicans 24433 (Candida albicans) | MIC C. albicans 90028 (Candida albicans) | MIC0 Tr (Trichophyton rubrum) | MIC0 Ef (Epidermophyton floccosum) | MIC0 A. flavus ATCC 204304 (A. flavus ATCC 204304) | MIC0 Mg (Microsporum gypseum) | MIC S. apiospermum 94-54 (S. apiospermum) | MIC S. apiospermum 98-38 (S. apiospermum) | MIC S. apiospermum 98-89 (S. apiospermum) | MIC C. neoformans 97-14 (Cryptococcus neoformans) | MIC C. neoformans 11239 (Cryptococcus neoformans) | MIC C. neoformans 11240 (Cryptococcus neoformans) | MIC H. capsulatum G217B (Histoplasma capsulatum) | MIC H. capsulatum GS20 (Histoplasma capsulatum) | MIC B. dermatitidis Gu (Blastomyces dermatitidis) | other results |
| --- | --- | --- | --- | --- | --- | --- | --- | --- | --- | --- | --- | --- | --- | --- | --- | --- | --- | --- | --- | --- | --- |
| CC[C@H]1O[C@@H](/C(C)=C/[C@H](C)/C=C/[C@H]2[C@@H](C)[C@@H]2/C=C/[C@@H]2O[C@H](CC(N)=O)C[C@H](N(C)C)[C@H]2O)CC=C1C [I-hh, (5S,6R)-5-(dimethylamino)polyangiamide] | 2.82 µg/mL | 16 µg/mL (≈ 32 µM) | 1 µg/mL | 0.7 µg/mL | 3.17 µg/mL | 32 µg/mL (≈ 63.9 µM) | 32 µg/mL (≈ 63.9 µM) | 2.51 µg/mL | 2.82 µg/mL | 2 µg/mL | 1.25 µg/mL | 32 µg/mL (≈ 63.9 µM) | 32 µg/mL (≈ 63.9 µM) | 1 to 2 µg/mL | 1 µg/mL (≈ 2 µM) | 1 µg/mL (≈ 2 µM) | 1 µg/mL (≈ 2 µM) | – | – | – | – |
| CC[C@H]1O[C@@H](/C(C)=C/[C@H](C)/C=C/[C@H]2[C@@H](C)[C@@H]2/C=C/[C@@H]2O[C@H](CC(=O)O)C[C@H](N(CC)CC)[C@H]2O)CC=C1C [I-z, (5S,6R)-5-(diethylamino)-6-hydroxypolyangioic acid] | 4 µg/mL | >16 µg/mL | 2.1 µg/mL | 2 µg/mL | 0.79 µg/mL | >32 µg/mL | >32 µg/mL | 1.25 µg/mL | 4 µg/mL | 2.2 µg/mL | 1.58 µg/mL | >16 µg/mL | >16 µg/mL | 0.25 to 0.5 µg/mL | 0.5 to 1 µg/mL | 0.25 to 0.5 µg/mL | 0.5 µg/mL (≈ 0.944 µM) | <0.19 µg/mL | <0.19 µg/mL | >12.5 µg/mL | MIC B. dermatitidis Kr (Blastomyces dermatitidis): >12.5 µg/mL; MIC B. dermatitidis V (Blastomyces dermatitidis): >12.5 µg/mL |
| (5S,6R)-5-(N-(4-imidazolyl)methyl-methylamino)-6-hydroxypolyangioic acid [I-h] | – | >16 µg/mL | 2.1 µg/mL | – | – | >32 µg/mL | >32 µg/mL | – | – | 1.0 µg/mL | – | >16 µg/mL | >16 µg/mL | 0.125 to 0.25 µg/mL | 0.5 µg/mL | 0.25 µg/mL | 0.25 µg/mL | – | – | – | – |
| CC[C@H]1O[C@@H](/C(C)=C/[C@H](C)/C=C/[C@H]2[C@@H](C)[C@@H]2/C=C/[C@@H]2O[C@H](CC(=O)O)C[C@H](N(C)CCO)[C@H]2O)CC=C1C [I-n, (5S,6R)-5-(N-(2-hydroxyethyl)-methylamino)-6-hydroxypolyangioic acid] | 8 µg/mL | >16 µg/mL | 1.4 µg/mL | 2.82 µg/mL | 1.25 µg/mL | >32 µg/mL | >32 µg/mL | 2.51 µg/mL | 2 µg/mL | 2 µg/mL | 1.99 µg/mL | >16 µg/mL | >16 µg/mL | 0.125 to 0.25 µg/mL | 0.25 µg/mL (≈ 0.47 µM) | 0.125 to 0.25 µg/mL | 0.125 to 0.25 µg/mL | <0.19 µg/mL | <0.19 µg/mL | 6.25 µg/mL (≈ 11.8 µM) | MIC B. dermatitidis Kr (Blastomyces dermatitidis): >12.5 µg/mL; MIC B. dermatitidis V (Blastomyces dermatitidis): >12.5 µg/mL |
| CC[C@H]1O[C@@H](/C(C)=C/[C@H](C)/C=C/[C@H]2[C@@H](C)[C@@H]2/C=C/[C@@H]2O[C@H](CC(=O)O)C[C@H](N(C)Cc3cccnc3)[C@H]2O)CC=C1C [I-w, (5S,6R)-5-(N-(3-pyridyl)methyl-methylamino)-6-hydroxypolyangioic acid] | – | >16 µg/mL | 4.25 µg/mL | – | – | >32 µg/mL | >32 µg/mL | – | – | 4 µg/mL | – | >16 µg/mL | >16 µg/mL | 2 µg/mL (≈ 3.46 µM) | 1 µg/mL (≈ 1.73 µM) | 0.5 µg/mL (≈ 0.864 µM) | 0.5 to 1 µg/mL | – | – | – | – |
| CC[C@H]1O[C@@H](/C(C)=C/[C@H](C)/C=C/[C@H]2[C@@H](C)[C@@H]2/C=C/[C@@H]2O[C@H](CCO)C[C@H](N(C)C)[C@H]2O)CC=C1C [I-ff, (5S,6R)-5-(dimethylamino)polyangi-1,6-diol] | – | 8 to 16 µg/mL | 2.07 µg/mL | – | – | 32 µg/mL (≈ 65.6 µM) | 32 µg/mL (≈ 65.6 µM) | – | – | 1.76 µg/mL | – | 32 µg/mL (≈ 65.6 µM) | 16 µg/mL (≈ 32.8 µM) | 0.5 µg/mL (≈ 1.03 µM) | – | – | – | <0.19 µg/mL | <0.19 µg/mL | >12.5 µg/mL | MIC0 Blastomyces dermatitidis 04-2167 (Blastomyces dermatitidis): 0.06 µg/mL; MIC0 Blastomyces dermatitidis 04-2508 (Blastomyces dermatitidis): 0.06 µg/mL; MIC0 Blastomyces dermatitidis 04-2915 (Blastomyces dermatitidis): 0.06 µg/mL; MIC0 Blastomyces dermatitidis 05-106 (Blastomyces dermatitidis): 0.06 µg/mL; MIC0 Blastomyces dermatitidis 05-186 (Blastomyces dermatitidis): 0.06 µg/mL; MIC0 Blastomyces dermatitidis 05-1391 (Blastomyces dermatitidis): 0.06 µg/mL; MIC0 Blastomyces dermatitidis 05-1707 (Blastomyces dermatitidis): ≦0.015 μg/mL; MIC0 Blastomyces dermatitidis 05-1820 (Blastomyces dermatitidis): 0.03 µg/mL; MIC0 Blastomyces dermatitidis 05-1829 (Blastomyces dermatitidis): 0.06 µg/mL; MIC0 Blastomyces dermatitidis 05-2020 (Blastomyces dermatitidis): 0.06 µg/mL; MIC0 Blastomyces dermatitidis R-3529 (Blastomyces dermatitidis): 0.03 µg/mL; MIC0 Blastomyces dermatitidis R-35629 (Blastomyces dermatitidis): 0.06 µg/mL; MIC B. dermatitidis Kr (Blastomyces dermatitidis): >12.5 µg/mL; MIC B. dermatitidis V (Blastomyces dermatitidis): >12.5 µg/mL |
